According to US20190314379A1, “METHODS OF USING CANNABINOID CB2 RECEPTOR AGONIST COMPOSITIONS TO SUPPRESS AND PREVENT OPIOID TOLERANCE AND WITHDRAWAL IN A SUBJECT” (Indiana University Research and Technology Corporation, priority 2018, published 2019):
pEC50: −log10 of the molar value. “Also recorded” adds a separate entry of the source.

Experiments:
mouse CB2 receptors [1] = target: T1, mouse CB2 receptors (Mus musculus, UniProt P47936); test: On-cell western for receptor internalization, HEK mCB2; assay type: cell-based
T1 construct: expressed in transfected cells
T1 sequence (P47936 whole entry): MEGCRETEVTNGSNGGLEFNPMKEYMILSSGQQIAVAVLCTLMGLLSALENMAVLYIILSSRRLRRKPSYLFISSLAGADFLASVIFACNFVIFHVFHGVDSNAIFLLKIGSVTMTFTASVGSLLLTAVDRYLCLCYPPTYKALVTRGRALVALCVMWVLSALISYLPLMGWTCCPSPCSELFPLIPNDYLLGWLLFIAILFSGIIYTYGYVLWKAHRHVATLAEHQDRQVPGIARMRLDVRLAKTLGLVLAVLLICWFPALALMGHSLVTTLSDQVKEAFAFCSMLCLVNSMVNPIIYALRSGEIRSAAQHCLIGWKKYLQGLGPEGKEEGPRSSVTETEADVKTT

mouse CB2 receptors [2] = target: T1, mouse CB2 receptors; test: Arrestin recruitment (PathHunter CHO K1CNR2, enzyme complementation); assay type: cell-based
mouse CB2 receptors [3] = target: T1, mouse CB2 receptors; test: Forskolin-stimulated cAMP accumulation (cyclase), HEK mCB2; assay type: cell-based
human CB2 [4] = target: T2, human CB2 (Homo sapiens, UniProt P34972); test: On-cell western for receptor internalization, HEK hCB2; assay type: cell-based; design: expressed in transfected cells; details: read-out: Internalization Emax
T2 sequence (P34972 whole entry): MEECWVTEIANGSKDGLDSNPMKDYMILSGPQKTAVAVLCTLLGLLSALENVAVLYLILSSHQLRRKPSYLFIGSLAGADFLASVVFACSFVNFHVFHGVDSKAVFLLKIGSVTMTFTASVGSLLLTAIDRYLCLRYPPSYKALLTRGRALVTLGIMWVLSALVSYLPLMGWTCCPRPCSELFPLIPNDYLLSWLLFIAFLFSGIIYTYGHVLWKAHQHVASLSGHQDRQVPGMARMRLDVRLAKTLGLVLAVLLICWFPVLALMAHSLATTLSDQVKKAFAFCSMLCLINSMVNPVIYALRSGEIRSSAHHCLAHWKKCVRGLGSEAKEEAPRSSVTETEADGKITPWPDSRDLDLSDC

human CB2 [5] = target: T2, human CB2; test: Phosphorylated ERK1/2 detection, HEK hCB2; assay type: cell-based; design: expressed in transfected cells
mouse CB2 receptors [6] = target: T1, mouse CB2 receptors; test: Phosphorylated ERK1/2 detection, HEK mCB2; assay type: cell-based
human CB2 [7] = target: T2, human CB2; test: Forskolin-stimulated cAMP accumulation (cyclase), HEK hCB2; assay type: cell-based; design: expressed in transfected cells; time of inhibition of forskolin-stimulated cAMP accumulation: dose or concentration left out as unconfirmed
[8] = tested on: morphine analgesia and antinociceptive tolerance; details: rats, with morphine; cited from earlier work
mouse CB2 receptors [9] = target: T1, mouse CB2 receptors; test: Myo-inositol phosphate-1 (IP1) accumulation, HEK mCB2; assay type: cell-based; details: via mouse CB2
[10] = tested on: naloxone-precipitated opioid withdrawal; test: Naloxone-precipitated opioid withdrawal in paclitaxel-treated mice; assay type: in vivo, mouse
Protocol: Alter the last injection of morphine (on day 28 for two-phase treatments, on day 13 for coadministration treatment), we challenged WT or CB2KO mice from experiments 2, 3, and 4 with vehicle, followed 30 minutes later by naloxone (5 mg/kg i.p.) to precipitate opioid receptor-mediated withdrawal. Mice were video-recorded for subsequent scoring of withdrawal-like behaviors for a 30-minute interval after challenge with vehicle or naloxone.
Mice were video-taped, and the number of jumps was scored in 5-minute intervals for a total observation period of 30 minutes after challenge with either saline or naloxone (5 mg/kg i.p.).

[11] = tested on: paclitaxel-induced cold allodynia; test: Paclitaxel-induced cold allodynia (acetone); assay type: in vivo, mouse; details: 10 mg/kg per day i.p.×12 days
Protocol: (§1) In all studies, the experimenter was blinded to the treatment condition, and mice were randomly assigned to experimental conditions. Paclitaxel (4 mg/kg i.p.) was administered four times on alternate days (cumulative dose, 16 mg/kg i.p.) to induce neuropathic pain as described previously by our group (Deng et al., 2015). Control mice received an equal volume of cremophor-vehicle. Development of paclitaxel-induced allodynia was assessed on day 0, 4, 7, 11, and 14.
(§2) Effects of pharmacologic manipulations were assessed at 30 minutes after drug administration during the maintenance phase of paclitaxel-induced neuropathy (i.e., beginning day 18-20 after initial paclitaxel injection).
(§3) In experiments 2 and 3, pharmacologic manipulations were performed once daily for 12 consecutive days in each of the two phases of chronic treatment. Four days separated phase 1 and phase 2 chronic dosing in all studies comprising two phases of chronic dosing. Experiments 2 and 3 were performed concurrently using overlapping cohorts that were tested with a single vehicle (phase 1), vehicle (phase 2) group.
(§4) We then assessed the antiallodynic efficacy of chronic systemic administration of vehicle or morphine (10 mg/kg per day i.p.×12 days) administered during phase 2 in the same animals. Responsiveness to mechanical and cold stimulation was evaluated on treatment days 1, 4, 8, and 12 during phase 1 and on treatment days 16, 19, 23, and 27 during phase 2 (i.e., phase 2 started on day 16).
(§5) In experiment 4, we evaluated the impact of coadministration of morphine (10 mg/kg i.p.×12 days) with a submaximal dose of LY 2828360 (0.1 mg/kg per day i.p.×12 days) in WT and CB2 KO mice.
Response time (seconds) spent attending to (i.e., elevating, licking, biting, or shaking) the paw stimulated with acetone (Sigma-Aldrich) was measured in triplicate for each paw to assess cold allodynia as previously published. An acetone bubble (approximately 5 to 6 p.1) formed at the end of a blunt 1-ml syringe hub was gently applied to the plantar surface of the hind paw. Care was taken not to apply mechanical stimulation to the hind paw with the syringe itself. The total time the animal spent attending to the acetone-stimulated paw (i.e., elevation, shaking, or licking) was recorded over 1 minute after acetone application. Acetone was applied three times to each paw with a 3-minute interval between applications. Values for each animal were calculated as the mean of six determinations of acetone responsiveness derived from each mouse.

[12] = tested on: paclitaxel-induced mechanical allodynia; test: Paclitaxel-induced mechanical allodynia (electronic von Frey); assay type: in vivo, mouse; details: 10 mg/kg per day i.p.×12 days
Protocol: as §1, §2, §3, §4, §5
Paw withdrawal thresholds (grams) to mechanical stimulation were measured in duplicate for each paw using an electronic von Frey anesthesiometer supplied with a 90-g probe (model Alemo 2390-5; IITC, Woodland Hills, Calif.) as described previously. Mice were placed on an elevated metal mesh table and allowed to habituate under individual, inverted plastic cages to the testing platform for at least 20 minutes until exploratory behavior had ceased. Alter the habituation period, a force was applied to the midplantar region of the hind paw with a semiflexible tip connected to the anesthesiometer. Mechanical stimulation was terminated when the animal withdrew its paw, and the value of the applied force was recorded in grams. Mechanical paw withdrawal thresholds were obtained in duplicate for each paw and are reported as the mean of duplicate determinations from each animal, averaged across animals, for each group.

[13] = WT mice, days 16-27, 10 mg/kg/day

SMILES: CCCCCCC(C)(C)c1ccc([C@@H]2C[C@H](O)CC[C@H]2CCCO)c(O)c1 (relative stereo) [CP55940, reference compound]
- pEC50 (mouse CB2 receptors [1]): 8.13
- receptor internalization (mouse CB2 receptors [1]; HEK mCB2): concentration dependently internalized the mCB2
- Emax (mouse CB2 receptors [1]; read-out: Internalization Emax): 49.1%
- pEC50 (mouse CB2 receptors [2]): 8.64
- arrestin recruitment (mouse CB2 receptors [2]; CHO cells expressing mCB2, 90-minute drug incubation): recruited arrestin in a concentration-dependent manner
- Emax (mouse CB2 receptors [2]; read-out: Arrestin Emax): 125%
- pEC50 (mouse CB2 receptors [3]): 8.18
- forskolin-induced cAMP levels (mouse CB2 receptors [3]; HEK mCB2, 1 μM final concentration, 5 minutes): attenuated forskolin-induced cAMP levels; also recorded: stronger inhibitory effect than AM1710
- cAMP levels in the absence of forskolin (mouse CB2 receptors [3]; HEK mCB2, compound alone): alone did not change cAMP levels
- forskolin-stimulated cAMP after PTX treatment (mouse CB2 receptors [3]; mCB2, 1 μM, PTX 300 ng/ml overnight): modestly increased cAMP accumulation at 5 minutes; also recorded: abolished the decrease in forskolin-stimulated cAMP
- time of efficacious inhibition of forskolin-stimulated adenylyl cyclase (mouse CB2 receptors [3]; mCB2, 1 μM, time course): ~5 min
- inhibition of forskolin-stimulated cAMP accumulation, concentration response (mouse CB2 receptors [3]; mCB2, 5 minutes): potently and efficaciously inhibited cAMP accumulation
- Emax (mouse CB2 receptors [3]; read-out: Cyclase Emax): 52.8%
- Emax (human CB2 [4]): 33.9%
- ERK1/2 phosphorylation time course (human CB2 [5]; hCB2, 1 pM): efficaciously increased ERK1/2 phosphorylation after 5 minutes, 10 minutes, and 30 minutes
- ERK1/2 phosphorylation after PTX treatment (human CB2 [5]; hCB2, 1 pM, PTX): retained
- stimulated phosphorylation of ERK1/2 in presence of SR144528 (human CB2 [5]; hCB2, SR144528 (1 pM)): completely blocked
- Emax (human CB2 [5]; read-out: pERK1/2 Emax, human CB2, 05 mins incubation): 95.7%
- Emax (human CB2 [5]; read-out: pERK1/2 Emax, human CB2, 30 mins incubation): 49.4%
- ERK1/2 phosphorylation time course (mouse CB2 receptors [6]; mCB2, 1 μM): increased phosphorylated ERK1/2 at 5-, 10-, 30-, and 40-minute time points
- ERK1/2 phosphorylation after PTX treatment (mouse CB2 receptors [6]; mCB2, 1 μM, PTX): abolished the CP55940-mediated phosphorylation of ERK1/2 at the 5-minute time point, but it was retained at the 40-minute time point
- ERK1/2 phosphorylation, concentration response (mouse CB2 receptors [6]; mCB2, 5 minutes): concentration dependency increased ERK1/2 phosphorylation
- ERK1/2 phosphorylation, concentration response (mouse CB2 receptors [6]; mCB2, 20 minutes): decreased ERK1/2 phosphorylation
- effect on ERK1/2 phosphorylation in presence of SR144528 (mouse CB2 receptors [6]; mCB2, 20 minutes, SR144528 1 μM): blocked
- pEC50 (mouse CB2 receptors [6]; pERK1/2 EC50, mouse CB2, 05 mins incubation): 7.98
- pEC50 (mouse CB2 receptors [6]; pERK1/2 EC50, mouse CB2, 20 mins incubation): 8.82
- Emax (mouse CB2 receptors [6]; read-out: pERK1/2 Emax, mouse CB2, 05 mins incubation): 136%
- Emax (mouse CB2 receptors [6]; read-out: pERK1/2 Emax, mouse CB2, 20 mins incubation): 20.3%
- cAMP levels, compound alone (no forskolin) (human CB2 [7]; HEK hCB2): alone did not change the cAMP levels
- duration of decrease in cAMP (human CB2 [7]; HEK hCB2): up to 10 minutes
- inhibition of forskolin-induced cAMP levels, time course (human CB2 [7]; HEK hCB2, 1 μM final concentration): produced early inhibition of forskolin-induced cAMP levels at 5 minutes
- inhibition of forskolin-stimulated cAMP after PTX pretreatment (human CB2 [7]; HEK hCB2, 1 μM final concentration, PTX): blocked the inhibition of forskolin-stimulated cAMP
- inhibition of forskolin-stimulated cAMP accumulation (human CB2 [7]; hCB2, 5 minutes of treatment): potent and efficacious
- time of inhibition of forskolin-stimulated cAMP accumulation (human CB2 [7]; hCB2, time course): 5 min
- inhibition of cAMP accumulation after PTX pretreatment (human CB2 [7]; hCB2, time course, PTX): abolished this effect
- Emax (human CB2 [7]; read-out: Cyclase Emax): 59.6%

SMILES: CCCCCOc1c(OC)ccc2cc(C(=O)NCc3ccc4c(c3)OCO4)c(=O)[nH]c12 [JTE907]
- morphine analgesia and morphine antinociceptive tolerance [8]: decreased morphine analgesia and attenuated morphine antinociceptive tolerance

SMILES: Cc1c(C(=O)c2cccc3ccccc23)c2cccc3c2n1[C@H](CN1CCOCC1)CO3 [WIN55212-2, reference compound]
- IP1 accumulation (mouse CB2 receptors [9]): increased IP1 accumulation

SMILES: CN1CC[C@]23c4c5ccc(O)c4O[C@H]2[C@@H](O)C=C[C@H]3[C@H]1C5 [morphine, reference compound]
- naloxone-precipitated jumping, Veh (1)-Mor (2) vs Veh (1)-Veh (2) ([10]; paclitaxel-treated CB2KO mice): precipitated jumping
- number of naloxone-precipitated jumps, vehicle (1)-morphine (2) vs vehicle (1)-vehicle (2) ([10]; paclitaxel-treated WT mice, morphine 10 mg/kg per day×12 days, naloxone 5 mg/kg i.p.): exhibited a greater number of jumps
- naloxone-precipitated withdrawal, Mor (1)-LY (2) vs Veh (1)-Veh (2) ([10]; paclitaxel-treated WT mice, morphine in phase 1): did not precipitate withdrawal
- cold allodynia, chronic phase 1 morphine ([11]; CB2KO mice): completely absent on day 8 and day 12
- cold allodynia, chronic phase 1 morphine ([11]; WT mice, days 4, 8, 12): tolerance developed to the antiallodynic effects of morphine
- cold allodynia, phase 2 morphine after phase 1 vehicle [11, 13]: only suppressed paclitaxel-induced mechanical and cold allodynia on day 16; also recorded: no longer efficacious
- mechanical allodynia, chronic phase 1 morphine ([12]; CB2KO mice): completely absent on day 8 and day 12
- mechanical allodynia, chronic phase 1 morphine ([12]; WT mice, days 4, 8, 12): tolerance developed to the antiallodynic effects of morphine
- mechanical allodynia, phase 2 morphine after phase 1 vehicle [12, 13]: only suppressed paclitaxel-induced mechanical and cold allodynia on day 16; also recorded: no longer efficacious
